Experimental data reported in patent publication US9309537B2, “Chimeric rat produced using rat embryonic stem cells in the presence of an ES cell differentiation suppressant” (National Cancer Center, priority 2009, dated 2016).

Test system: rat ES cells
Test: Culture of established rat ES cells with PAC factor or Y factor alone (colony morphology, alkaline phosphatase)
Type: cell-based
Settings: ES cell culture medium on MEF

C[C@@H](N)[C@H]1CC[C@H](C(=O)Nc2ccncc2)CC1 [Y, Y-27632]
alkaline phosphatase activity: did not exhibit alkaline phosphatase activity
undifferentiated state and colony morphology of established rat ES cells: unable to maintain the undifferentiation state
